Results: US20260224541A1, “PHARMACEUTICAL FORMULATION, PREPARATION METHOD THEREFOR, AND TABLET COMPOSITION” (JEIL PHARMACEUTICAL CO., LTD., priority 2023, published 2026)

Experiment: oral administration: blood concentration of the citrate salt vs free base Compound 1
Format: in vivo
Conditions: administered orally

Cc1cccc(C)c1CNc1cc(C(=O)N2CCC2)cn2c(C)c(C)nc12.O=C(O)CC(O)(CC(=O)O)C(=O)O [citrate salt of Compound 1, azetidin-1-yl{8-[(2,6-dimethylbenzyl)amino]-2,3-dimethylimidazo[1,2-a]pyridin-6-yl}methanone citrate salt]
AUC compared to the free base Compound 1: at least 5 fold
Cmax compared to the free base Compound 1: at least 11 fold
time to reach peak blood concentrations compared to the free base Compound 1: faster
